Measurements published in patent publication US20030119894A1, “Methods for treatment of cancer or neoplastic disease and for inhibiting growth of cancer cells and neoplastic cells” (Gemin X Biotechnologies Inc., priority 2001, published 2003).

Key:
Baby rat kidney cells = assay: Transformation of baby rat kidney cells transfected with E1A oncogene and Bcl-2 (colony count); assay type: cell-based
Description: Baby rat kidney cells were transfected with RcRSV (Hartl et al. (1992) Cell Growth Differ. 3 (12): 909-18) expressing both E1A oncogene and anti-apoptotic Bcl-2 as described in (Lin et al. (1995) Mol. Cell. Biol. 15 (8): 4536-44). Transfected cells were then cultured (Lin et al. (1995) Mol. Cell. Biol. 15 (8): 4536-44) in the presence of varying concentrations of Butyl-meta-cycloheptylprodiginine for three weeks and the number of transformed cell colonies was counted.

Bcl-2 = Bcl-2 (Homo sapiens, UniProt P10415); assay: Anti-apoptotic:Pro-apoptotic binding assay, Bcl-2
Sequence of Bcl-2 (P10415 whole entry): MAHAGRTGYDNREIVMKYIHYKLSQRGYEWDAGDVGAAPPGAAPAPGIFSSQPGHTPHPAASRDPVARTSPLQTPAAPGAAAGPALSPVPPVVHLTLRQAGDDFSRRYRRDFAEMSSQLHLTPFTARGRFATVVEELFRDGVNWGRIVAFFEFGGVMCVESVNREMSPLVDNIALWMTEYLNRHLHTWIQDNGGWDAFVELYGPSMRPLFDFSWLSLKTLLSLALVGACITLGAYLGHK

E1A cells = assay: E1A-Bcl2 killing assay; assay type: cell-based
Description: (§1) Human anti-apoptotic Bcl-2 over-expressing epithelial cells (B23 cells) (Nguyen et al. (1994) J. Biol. Chem. 269 (24): 16521-24) were plated in 24-well plates at a density of about 80,000 cells per well and infected with 12S-adenovirus, which expresses the E1A oncogene (Nguyen et al. (1998) J. Biol. Chem. 273 (50): 33099-102). Normal human breast epithelial cells, MCF-7 breast cancer cells and MBA-MB231 breast cancer cells were plated in 24-well plates at a density of between 70,000-80,000 cells per well. After incubation at 37° C. for the indicated times in a 5% CO2 incubator, cells were harvested and cell death was monitored using a trypan blue assay as described in Ausubel et al. (1988) Current Protocols in Molecular Biology, Section 11.5.1 (Greene Publishing Associates and Intersciences, New York)).
IC50 values determined for these illustrative compounds in an E1A killing assay, using the materials and methods described above. These compounds have been described in Gerber et al. (1975), Critical Reviews in Microbiology, pp. 469-85.

Bcl-w = molecular target: T1, Bcl-w (Homo sapiens, UniProt Q92843); assay: Anti-apoptotic:Pro-apoptotic binding assay, Bcl-w
T1 sequence (Q92843 1-193): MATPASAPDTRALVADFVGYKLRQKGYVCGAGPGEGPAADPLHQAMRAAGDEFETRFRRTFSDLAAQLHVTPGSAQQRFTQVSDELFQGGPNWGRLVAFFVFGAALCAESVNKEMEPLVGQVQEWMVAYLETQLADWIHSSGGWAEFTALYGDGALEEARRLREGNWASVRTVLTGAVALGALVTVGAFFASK

[1] = system: normal baby rat kidney cells; assay: Susceptibility of normal baby rat kidney cells; assay type: cell-based; conditions: similar conditions; data not shown
Excerpt: In the absence of anti-apoptotic Bcl-2, all baby rat kidney cells died within a few days (data not shown).

[2] = system: MBA-MB231 breast cancer cells; assay: cells; assay type: cell-based; conditions: 72 h, read-out: Cytotoxicity (% Dead Cells)
Description: as §1

B23 cells [3] = assay type: cell-based, Human; conditions: B23 cells without E1A; data not shown
B23 cells [4] = assay: cells; assay type: cell-based, Human
Description: as §1
Normally, intracellular expression of an oncogene in cells results in apoptotic cell death. However, if anti-apoptotic Bcl-2 is over-expressed in these cells, they are protected from apoptosis. Therefore, an anti-cancer compound's activity can be monitored by measuring cell death in B23 cells in the presence of the E1A oncogene.

[5] = system: Human oral epithelial carcinoma cells (KB cells); assay: Apoptosis reinstatement in Bcl-2 over-expressing KB cells (trypan blue); assay type: cell-based
Description: Human oral epithelial carcinoma cells (KB cells) with and without stably expressed anti-apoptotic Bcl-2 were infected with 12S-adenovirus expressing the E1A oncogene, as described above in Example 6.1. Cell death was monitored 70 hours after infection using the trypan blue assay described above.

[6] = system: Normal human breast epithelial cells; assay: Trypan blue cell death assay in normal human breast epithelial cells; assay type: cell-based; conditions: 1 μM
Description: as §1

[7] = as above; assay type: cell-based; conditions: human
Description: as §1

[8] = system: MCF-7 breast cancer cells; assay: Trypan blue cell death assay in MCF-7 breast cancer cells; assay type: cell-based; conditions: Homo sapiens, MCF7, 72 h, read-out: Cytotoxicity (% Dead Cells)
Description: as §1

[9] = Homo sapiens, 72 h, read-out: Cytotoxicity (% Dead Cells)

## CCCCC1CCCCCCc2cc1c(/C=C1\N=C(c3ccc[nH]3)C=C1OC)[nH]2 (stereo not shown) [Butyl-meta-cycloheptylprodiginine, butyl-meta-cycloheptylprodiginine]
Baby rat kidney cells; baby rat kidney cells transformed with Bcl-2 and E1A
  Apoptosis of transformed colonies: promoted apoptosis of the transformed colonies
Baby rat kidney cells; increasing concentrations, three weeks
  Number of transformed cell colonies (ability of Bcl-2 to transform cells in the presence of E1A): significantly lowered the ability of anti-apoptotic Bcl-2 to transform cells
Bcl-2
  IC50: 125 µM
E1A cells; read-out: IC50 (μM) E1A-Bcl2 killing assay
  IC50: 0.05 µM
Bcl-w
  IC50: 100 µM
[1]
  Susceptibility of normal baby rat kidney cells: not susceptible
[2]
  cytotoxicity at 0.25 µM: 64%
  cytotoxicity at 1 µM: 100%
  cytotoxicity at 2 µM: 100%
B23 cells [3]
  Effect on B23 cell death in the absence of E1A: no significant effect
B23 cells [4]; B23 cells with E1A, concentrations as low as
  Concentration able to inhibit Bcl-2 in B23 cells and re-establish the killing effect of the E1A oncogene: 0.25 µM
B23 cells [4]; [9]
  cytotoxicity at 1 µM: 85%
  cytotoxicity at 2 µM: 95%
B23 cells [4]; Homo sapiens, B23 cells, 0.25 μM, 72 h, read-out: Cytotoxicity (% Dead Cells)
  cytotoxicity at 0.25 µM: 75%
[5]; uninfected cells, same concentrations
  Apoptosis in uninfected KB cells: no effect on apoptosis
[5]; various concentrations, 70 hours after infection
  Apoptosis in E1A-infected Bcl-2 over-expressing KB cells: reinstate apoptosis
[6]
  Effect on normal human breast epithelial cells: not affected
[7]
  cytotoxicity at 72 h, 0.25 µM: 5%
  cytotoxicity at 72 h, 1 µM: 5%
  cytotoxicity at 72 h, 2 µM: 15%
[8]
  cytotoxicity at 0.25 µM: 70%
  cytotoxicity at 1 µM: 100%
  cytotoxicity at 2 µM: 100%

## CCC1CCCCCCCCc2ccc([nH]2)/C=C2\N=C(C=C2OC)c2ccc1[nH]2 (stereo not shown) [Ethylcyclononylprodiginine, ethylcyclononyl-prodiginine]
Bcl-2; at 510 μM, read-out: % inhibition at μM concentration, Anti-apoptotic:Pro-apoptotic binding assay Bcl-2
  inhibition at 510 µM: 45%
E1A cells; read-out: % inhibition at μM concentration, E1A-Bcl2 killing assay
  inhibition at 5 µM: 20%
B23 cells [4]; [9]
  cytotoxicity at 1 µM: 15%
  cytotoxicity at 5 µM: 20%

## Undecylprodiginine
Bcl-2; at 500 μM
  % inhibition at μM concentration, Anti-apoptotic:Pro-apoptotic binding assay Bcl-2: 40%; 500 μM
E1A cells; at 5 μM
  % inhibition at μM concentration, E1A-Bcl2 killing assay: 25%; 5 μM
B23 cells [4]; B23 cells, 1.0 μM, 72 h
  Cytotoxicity (% Dead Cells): 18%
B23 cells [4]; B23 cells, 5.0 μM, 72 h
  Cytotoxicity (% Dead Cells): 25%
